Experimental data published in a compilation of properties of binary mixtures (doi:10.1016/j.jct.2014.10.022).

Assay: xn = mol fraction of the nth substance listed
Details: 100 kPa

CC[n+]1ccn(C)c1.O=S(=O)([O-])C(F)(F)C(F)F + CCCC[n+]1ccc(C)cc1.O=S(=O)([N-]S(=O)(=O)C(F)(F)F)C(F)(F)F
viscosity [mPa·s]
Details	x2 = 0.0504	x2 = 0.112	x2 = 0.2211	x2 = 0.3324	x2 = 0.4432	x2 = 0.5529	x2 = 0.6631	x2 = 0.774	x2 = 0.8828	x2 = 0.9517
293.15 K	115.9	113.9	–	–	–	95.1	89.1	–	78.9	75.3
303.15 K	72	70.8	69.5	–	62.7	59.4	55.8	52.9	49.7	–
313.15 K	–	–	45.7	43.8	–	39.5	–	35.4	33.2	31.7
323.15 K	33.3	32.8	31.7	30.6	–	27.6	26.5	25	23.4	22.4
333.15 K	24.3	24	23.2	22.4	–	–	–	18.4	17.3	16.6
343.15 K	–	18	17.3	16.8	16.2	15.2	14.7	13.9	13	12.5
353.15 K	14.2	14	13.5	13.1	12.6	11.9	11.6	–	–	9.9

CCCC[n+]1ccc(C)cc1.O=S(=O)([N-]S(=O)(=O)C(F)(F)F)C(F)(F)F + CCOS(=O)(=O)[O-].CC[n+]1ccn(C)c1
viscosity [mPa·s]
Details	x2 = 0.0475	x2 = 0.1177	x2 = 0.226	x2 = 0.3341	x2 = 0.4479	x2 = 0.558	x2 = 0.6663	x2 = 0.7776	x2 = 0.886	x2 = 0.9487
293.15 K	78.7	–	100.8	–	132.9	–	150.8	149.6	141.6	133.5
303.15 K	49.3	54	62.2	70.8	79.8	–	90.1	–	85.5	81.1
313.15 K	33	36	41.1	–	51.7	55.9	–	57.9	55.7	–
323.15 K	23.3	25.3	28.6	31.9	35.5	38.2	–	–	38.3	36.8
333.15 K	17.2	–	20.9	–	25.5	–	–	28.4	27.7	26.7
343.15 K	–	–	15.6	17.1	18.9	20.2	–	–	20.6	–
353.15 K	–	11	–	13.3	14.5	15.5	16.1	–	15.9	15.4
